# Measurements reported in article PMC4074212, “Tetra- and Pentacyclic Triterpene Acids from the Ancient Anti-inflammatory Remedy Frankincense as Inhibitors of Microsomal Prostaglandin E2 Synthase-1” (Journal of Natural Products, 2014).
# “Also recorded” adds a separate entry of the source.
# How the values were obtained:
# [1] = test system: phorbol ester-induced ear inflammation; design: method as in PMID 16621377; settings: applied topically, mice; cited from earlier work
# mPGES-1 = target: T1, mPGES-1 (Homo sapiens, UniProt O14684); assay: cell-free mPGES-1 activity assay (microsomes of IL-1β-stimulated A549 cells, PGE2 formation from PGH2); type: biochemical; settings: for inhibition of mPGES-1 activity (in words): tested at / up to 10 μM
# T1 construct: using microsomes of IL-1β-stimulated A549 cells as enzyme source; endogenous in cells; host or cells: A549 cells, IL-1β-induced, microsomal fraction
# T1 sequence (O14684 1-152): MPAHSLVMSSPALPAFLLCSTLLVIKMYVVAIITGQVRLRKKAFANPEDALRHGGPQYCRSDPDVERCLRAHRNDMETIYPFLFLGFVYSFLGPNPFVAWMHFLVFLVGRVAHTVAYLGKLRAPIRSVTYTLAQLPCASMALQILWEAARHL
# COX enzymes = test system: COX enzymes; design: method as in PMID 17945191, PMID 20188172, PMID 24354175; settings: cited from earlier work
compound,measurement,setting,value
"C=C(C)[C@@H]1CC[C@]2(C)CC[C@]3(C)[C@H](CC[C@@H]4[C@@]5(C)CC[C@H](O)[C@](C)(C(=O)O)[C@@H]5CC[C@]43C)[C@@H]12 [Compound 15, Lupeolic acid]",inhibition of phorbol ester-induced ear inflammation,[1],inhibited
"CC(C)=CCC[C@H](C(=O)O)[C@@H]1CC[C@]2(C)C3=C(CC[C@@]12C)[C@@]1(C)CC[C@@H](O)C(C)(C)[C@@H]1CC3 [Compound 5, 3-α-hydroxy-8,24-dienetirucallic acid]",inhibition at 10 µM,mPGES-1; at 10 μM,96%
"CC(=O)O[C@@H]1CC[C@]2(C)C3=C(CC[C@H]2C1(C)C)[C@@]1(C)CC[C@@H]([C@H](CCC=C(C)C)C(=O)O)[C@]1(C)CC3 [Compound 6, 3α-acetoxy-8,24-dienetirucallic acid]",concentration range of COX enzyme inhibition,COX enzymes,two-digit micromolar range
"C=C(C)[C@@H]1CC[C@]2(C)[C@H](CC=C3[C@@H]4[C@@H](C)[C@H](C)CC[C@]4(C)CC[C@]32C)[C@@]1(C)CCC(=O)O [Compound 11, roburic acid]",inhibition of mPGES-1 activity (in words),mPGES-1,failed to significantly inhibit; also recorded: not active
same,concentration range of COX enzyme inhibition,COX enzymes,two-digit micromolar range
"C=C(C)[C@@H]1CC[C@]2(C)CC[C@]3(C)[C@H](CC[C@@H]4[C@@]5(C)CC[C@H](OC(C)=O)[C@](C)(C(=O)O)[C@@H]5CC[C@]43C)[C@@H]12 [Compound 16, 3-O-acetyllupeolic acid]",inhibition of phorbol ester-induced ear inflammation,[1],inhibited
"CC(C)[C@@H]1CC[C@]2(C)[C@H](CC=C3[C@@H]4[C@@H](C)[C@H](C)CC[C@]4(C)CC[C@]32C)[C@@]1(C)CCC(=O)O [Compound 12, 4,(23)-dihydroroburic acid]",inhibition of mPGES-1 activity (in words),mPGES-1,failed to significantly inhibit; also recorded: not active
"CC(C)[C@@H]1CC[C@]2(C)[C@H](CC=C3[C@@H]4CC(C)(C)CC[C@]4(C)CC[C@]32C)[C@@]1(C)CCC(=O)O [Compound 14, 4,(23)-dihydronyctanthic acid]",inhibition of mPGES-1 activity (in words),mPGES-1,failed to significantly inhibit; also recorded: inactive
